Test results from patent US7833543B2, “High viscosity liquid controlled delivery system and medical or surgical device” (Durect Corporation, priority 1995, dated 2010).
Blank lines part the entries; values can stand above or below the compound they belong to.

Assays:
Type in all cases: physicochemical
[1] = In vitro release of bupivacaine from precipitated drops into buffer (UV-vis 265 nm)
Procedure: CAPROL 10G4O (decaglycerol tetraoleate) was dissolved in benzyl benzoate at a weight ratio of 50:50. Bupivacaine was dissolved in this mixture at a concentration of 8.75 wt %. Drops weighing approximately 100 mg were precipitated into a test tube containing 40 mL of buffer. Samples of the buffer were removed at specified time points and replaced with fresh buffer. The samples were analyzed by UV-vis spectrophotometry at 265 nm to determine the concentration of bupivacaine in each buffer sample. At 4 hours, less than 7.5 wt % of the bupivacaine in the drop had been released to the buffer. At 48 hours, around 24.0 wt % of the bupivacaine had been released.
The 1,6-hexanediol lactate ε-hydroxycaproic acid produced in Example 1 was dissolved in N-methylpyrrolidone at a weight ratio of 70:30. 10 wt % bupivacaine base was then added to this mixture and dissolved. Drops weighing approximately 100 mg were precipitated into 40 mL buffer. Samples of buffer were removed at specified times and replaced with fresh buffer. Buffer samples were analyzed by UV-vis spectrophotometry at 265 nm to determine the concentration of bupivacaine in each buffer sample. At 4 hours, around 4.1 wt % of the bupivacaine contained in the precipitated drop had been released. At 24 hours, around 8.6 wt % of the bupivacaine had been released.

[2] = Aerosol formulation with propellant R-134a: solution formation and sprayability
Procedure: 5.33 g of a 10 wt % solution of bupivacaine in a composition containing 70:30 SAIB/NMP, prepared as described in U.S. Pat. No. 5,747,058, was added to an aerosol container. 14.32 g of propellant R-134a (1,1,1,2-tetrafluoroethane) was added.
5.44 g of a 10 wt % solution of bupivacaine in a composition containing 70:30 SAIB/NMP, prepared as described in U.S. Pat. No. 5,747,058, was added to an aerosol container. 16.55 g. of propellant R-134a (1,1,1,2-tetrafluoroethane) was added.
0.87 g of bupivacaine base was added to an aerosol container. 8.47 g of an SAIB/propylene carbonate solution (70:30) containing 2.5 wt % of a biodegradable polymer (65:35 DLPLG) was added to the container. 0.98 g of ethanol was added to help the drug dissolve. Once dissolved, approximately 16 g of propellant R-134a (1,1,1,2-tetrafluoroethane) was added.

[3] = Dissolution of AZT and ddC SAIB formulations in soft gelatin capsules (USP XXIII Apparatus 2, Method B)
Procedure: Zidovudine (AZT) and dideoxycytodine (ddC) suspensions were prepared by mixing drug with SAIB/solvent solutions with and without a cellulosic coexcipient. Approximately 1 g of each formulation was filled into soft gelatin capsules, which were heat sealed. Dissolution profiles were determined using Apparatus 2, Method B (USP XXIII) at a paddle speed of 50 rpm. Individual gelcaps were placed in separate dissolution vessels, and samples of the buffer in each vessel were obtained at 0.25, 0.5, 1, 2, 3, 6, and 24 hours. The samples were analyzed at 266 and 272 nm on a Perkin Elmer Lambda 20 UV-vis spectrophotometer for AZT and ddC drug content, respectively.

[4] = Dissolution of SAIB in propellants; details: propellants 134a and 227, levels of 5 and 10 wt %
Procedure: SAIB was dissolved in propellants 134a (1,1,1,2-tetrafluoroethane) and 227 (1,1,1,2,3,3,3-heptafluoropropane) at levels of 5 and 10 wt %.

[5] = In vitro release of paclitaxel and 5-FU from SAIB formulations into buffer (UV-vis); details: for cumulative release: after 7 days, 37° C.
Procedure: Solutions of SAIB in the appropriate solvent were prepared with and without the incorporation of an additive. The active was weighed into a test tube and the SAIB/mixture was added and mixed thoroughly to yield a solution or suspension at the desired drug loading. Single drops of the mixture were precipitated into buffer by injection with standard syringes and needles. Samples were maintained at 37° C. in a shaker, sampled periodically, and analyzed by UV-vis spectrophotometry for active release. Paclitaxel and 5-FU samples were analyzed at 232 nm and 266 nm, respectively.

- bupivacaine contained in the precipitated drop released ([1]; 1,6-hexanediol lactate ε-hydroxycaproic acid (Example 1)/N-methylpyrrolidone 70:30, 10 wt % bupivacaine base, 4 hours): around 4.1 wt %
- bupivacaine released ([1]; 1,6-hexanediol lactate ε-hydroxycaproic acid (Example 1)/N-methylpyrrolidone 70:30, 10 wt % bupivacaine base, 24 hours): around 8.6 wt %
- bupivacaine in the drop released to the buffer ([1]; CAPROL 10G4O (decaglycerol tetraoleate)/benzyl benzoate 50:50, 8.75 wt % bupivacaine, 4 hours): less than 7.5 wt %
- bupivacaine released ([1]; CAPROL 10G4O (decaglycerol tetraoleate)/benzyl benzoate 50:50, 8.75 wt % bupivacaine, 48 hours): around 24.0 wt %
Compound: CCCCN1CCCCC1C(=O)Nc1c(C)cccc1C (stereo not shown) [bupivacaine]
- sprayability of aerosol mixture ([2]; 0.87 g bupivacaine base, 8.47 g SAIB/propylene carbonate (70:30) with 2.5 wt % 65:35 DLPLG, 0.98 g ethanol, approx. 16 g R-134a): easily sprayed with no bubbling or foaming
- sprayability of aerosol mixture ([2]; 5.33 g of 10 wt % bupivacaine in 70:30 SAIB/NMP + 14.32 g propellant R-134a): easily sprayed with no bubbling or foaming
- sprayability of aerosol mixture ([2]; 5.44 g of 10 wt % bupivacaine in 70:30 SAIB/NMP + 16.55 g propellant R-134a): easily sprayed with no bubbling or foaming

- appearance on dissolution in propellants [4]: Clear solutions were formed
Compound: sucrose acetate isobutyrate [SAIB]

- percent released ([5]; 25 mg/mL paclitaxel in 85:15 SAIB/EtOH + 5 wt % Cremophor EL, after two days in vitro): 77.0%
- percent released ([5]; 25 mg/mL paclitaxel in 85:15 SAIB/EtOH, no surfactant, after two days in vitro): 56.0%
- cumulative release ([5]; drug loading 5 mg/mL): 106.4%
- cumulative release ([5]; drug loading 25 mg/mL): 85.9%
- cumulative release ([5]; drug loading 50 mg/mL): 33.8%
Compound: CC(=O)O[C@H]1C(=O)[C@@]2(C)[C@H]([C@H](OC(=O)c3ccccc3)[C@]3(O)C[C@H](OC(=O)[C@H](O)[C@@H](NC(=O)c4ccccc4)c4ccccc4)C(C)=C1C3(C)C)[C@]1(OC(C)=O)CO[C@@H]1C[C@@H]2O [paclitaxel]

The remaining lines, values behind:

Compound: Cc1cn([C@H]2C[C@H](N=[N+]=[N-])[C@@H](CO)O2)c(=O)[nH]c1=O [AZT, Zidovudine]
- cumulative percent released ([3]; 11.1 wt % AZT in 70:30 SAIB/Migylol 810, 2 hours): 104.1%
- amount released ([3]; 11.1 wt % AZT in 85:15 SAIB/EtOH + 0.02 wt % CAB, 2 hours): 25.6%
- amount released ([3]; 11.1 wt % AZT in 85:15 SAIB/EtOH + 0.2 wt % CAB, 2 hours): 7.6%
- cumulative percent released ([3]; 11.1 wt % AZT in 85:15 SAIB/EtOH, 2 hours): 71.2%
- cumulative percent released ([3]; active loading doubled to 22.2 wt % in 85:15 SAIB/EtOH): 93.8%

Compound: O=c1[nH]cc(F)c(=O)[nH]1 [Example 5-FU, 5-fluorouracil]
- percent released ([5]; 10 mg/mL 5-FU in 85:15 SAIB/EtOH + 5 wt % Cremophor EL, after two days): 106.0%
- amount released ([5]; 10 mg/mL 5-FU in 85:15 SAIB/EtOH + Pluronic L-101, after two days): 102.0%
- percent released ([5]; 10 mg/mL 5-FU in 85:15 SAIB/EtOH, no surfactant, after two days): 80.6%

Compound: Nc1ccn([C@H]2CC[C@@H](CO)O2)c(=O)n1 [ddC, dideoxycytodine]
- cumulative percent released ([3]; 0.225 wt % ddC in 70:30 SAIB/Migylol 810, 2 hours): 74.2%
- amount released ([3]; 0.225 wt % ddC in 85:15 SAIB/EtOH + 0.5 wt % CAB, 2 hours): 39.4%
- amount released ([3]; 0.225 wt % ddC in 85:15 SAIB/EtOH + 1.0 wt % CAB, 2 hours): 13.5%
- cumulative percent released ([3]; 0.225 wt % ddC in 85:15 SAIB/EtOH, 2 hours): 59.5%
